Experimental data as given in patent US20020132853A1, “Capsaicin receptor ligands” (priority 2000, published 2002).

Target: T1, human capsaicin receptor (Homo sapiens, UniProt Q8NER1)
T1 construct: expression consrtuct encoding the full length human capsaicin receptor; expressed in transfected cells
Experiment: Antagonist assay for Capsaicin receptor mediated calcium mobilization
Format: cell-based
Conditions: Table III, read-out: EC50 (the source's name)
Procedure: Calcium Mobilization Assay
Cells transfected with expression plasmids (as described in Example 10) and thereby expressing the human capsaicin receptor are seeded and grown to 70-90% confluency in FALCON black-walled, clear-bottomed 96-well plates (#3904, BECTON-DICKINSON, Franklin Lakes, N.J.) . The culture media are emptied from the 96 well plates and FLUO-3 AM calcium sensitive dye (Molecular Probes, Eugene, OR) is added to each well (dye solution: 1 mg FLUO-3 AM, 440 uL DMSO and 440 ul 20% pluronic acid in DMSO, diluted 1:4, 50 ul diluted solution per well). Plates are covered with aluminum foil and incubated at 37° C for 1-2 hours in an environment containing 5% CO2. After the incubation the dye is emptied from the plates, and the cells are washed once with Krebs-Ringer HEPES (KRH) buffer (25 mM HEPES, 5 mM KCl, 0.96 mM NaH2PO4, 1 MM MgSO4, 2 mM CaCl2, 5 mM glucose, 1 mM probenecid, pH 7.4), and resuspended in KRH buffer.
Agonist (e.g., olvanil, capsaicin, or RTX)-induced calcium mobilization is monitored using either FLUOROSKAN ASCENT (Labsystems, Franklin, Mass.) or FLIPR (fluorometric imaging plate reader system, Molecular Devices, Sunnyvale, Calif.) instruments. Similarly, varying concentrations of the antagonists ruthenium red or capsazepine are added to cells concurrently with agonist (e.g., 25-50 nM capsaicin). For agonist-induced calcium responses, data obtained between 30 and 60 seconds after agonist application are used to generate the EC50 values. […] software (Synergy Software, Reading, Pa.) was utilized to fit the data to the equation: […]
to determine the EC50 for the response. In this equation, y is the maximum fluorescence signal, x is the concentration of the agonist or antagonist, a is the Emax, b corresponds to the EC50 or IC50 value, and finally, c is the Hill coefficient.
Assay for Determination of Capsaicin Receptor Antagonist Effects
In order to measure the ability of a test compound to antagonize (inhibit) the response of cells expressing capsaicin receptors to capsaicin or other vanilloid agonist, the EC50 of capsaicin is first determined.
An additional 20 ul of KRH buffer and 1 ul DMSO is added to each well of cells, prepared as described above. 100 ul capsaicin in KRH buffer is automatically transferred by the FLIPR instrument to each well.
Test compounds are dissolved in DMSO, diluted in 20 ul KRH buffer so that the final concentration of test compounds in the assay well is between 1 uM and 5 uM, and added to cells prepared as described above. The 96 well plates containing prepared cells and test compounds are incubated in the dark, at room temperature for 0.5-6 hours. It is important that the incubation not continue beyond 6 hours. Just prior to determining the fluorescence response, 100 ul capsaicin in KRH buffer at twice the EC50 concentration determined from the concentration response curve is automatically added by the FLIPR instrument to each well of the 96 well plate for a final sample volume of 200 ul and a final capsaicin concentration equal to the EC50. The final concentration of test compounds in the assay wells is between 1 uM and 5 uM. […] Antagonists of the capsaicin receptor decrease this response by about 20%, preferably by about 50%, and most preferably by at least 80% as compared to matched control. The concentration of antagonist required to provide a 50% decrease is the EC50 for the antagonist (also referred to as the IC50).

T1 sequence (Q8NER1 whole entry): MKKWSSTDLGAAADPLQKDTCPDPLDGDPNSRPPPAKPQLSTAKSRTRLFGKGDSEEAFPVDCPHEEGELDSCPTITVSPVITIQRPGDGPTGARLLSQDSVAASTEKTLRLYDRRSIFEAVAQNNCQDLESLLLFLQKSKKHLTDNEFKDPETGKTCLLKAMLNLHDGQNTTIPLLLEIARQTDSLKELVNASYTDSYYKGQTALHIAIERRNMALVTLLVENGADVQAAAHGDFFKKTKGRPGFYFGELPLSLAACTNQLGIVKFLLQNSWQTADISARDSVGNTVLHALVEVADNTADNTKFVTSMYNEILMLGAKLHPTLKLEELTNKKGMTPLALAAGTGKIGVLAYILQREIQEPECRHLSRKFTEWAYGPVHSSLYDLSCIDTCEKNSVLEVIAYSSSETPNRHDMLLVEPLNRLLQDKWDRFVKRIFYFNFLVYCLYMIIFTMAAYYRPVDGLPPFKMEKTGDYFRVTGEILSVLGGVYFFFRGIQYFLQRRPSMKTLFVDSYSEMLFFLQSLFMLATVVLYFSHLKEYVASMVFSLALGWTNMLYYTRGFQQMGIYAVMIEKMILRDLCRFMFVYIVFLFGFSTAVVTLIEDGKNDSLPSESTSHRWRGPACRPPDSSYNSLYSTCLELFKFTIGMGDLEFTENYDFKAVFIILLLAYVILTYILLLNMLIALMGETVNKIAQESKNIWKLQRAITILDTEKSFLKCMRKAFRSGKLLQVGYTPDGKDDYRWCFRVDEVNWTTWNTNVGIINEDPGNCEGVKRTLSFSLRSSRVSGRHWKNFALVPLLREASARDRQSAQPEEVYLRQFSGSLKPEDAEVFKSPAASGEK

IC50 | Structure (SMILES)
< 1000 nM | CC(C)(C)c1ccc(NC(=O)N2CCN(c3ncccc3Cl)CC2C(C)(C)C)cc1 (centres unmarked) [Compound 64, 2-tert-butyl-N-(4-tert-butylphenyl)-4-(3-chloropyridin-2-yl)piperazine-1-carboxamide]
< 1000 nM | C[C@@H]1CN(c2ncccc2Cl)CCN1C(=O)Nc1ccc(C(C)(C)C#N)cc1 [Compound 56, (2R)-4-(3-chloropyridin-2-yl)-N-[4-(1-cyano-1-methylethyl)phenyl]-2-methylpiperazine-1-carboxamide]
< 1000 nM | C[C@@H]1CN(c2ncccc2N(C)C)CCN1C(=O)Nc1ccc(C(F)(F)F)cc1 [Compound 44]
< 1000 nM | CC(C)(C)C1CN(c2ncccc2C(F)(F)F)CCN1C(=O)Nc1ccc(C(F)(F)F)cc1 (centres unmarked) [Compound 68, 2-tert-butyl-N-[4-(trifluoromethyl)phenyl]-4-[3-(trifluoromethyl)pyridin-2-yl]piperazine-1-carboxamide]
< 1000 nM | C[C@@H]1CN(c2ncccc2Cl)CCN1C(=O)Nc1ccc(C(F)(F)F)cc1F [Compound 27, (2R)-4-(3-chloropyridin-2-yl)-N-[2-fluoro-4-(trifluoromethyl)phenyl]-2-methylpiperazine-1-carboxamide]
< 1000 nM | C[C@@H]1CN(c2ncccc2Cl)CCN1C(=O)Nc1ccc(C2CCCC2)cc1 [Compound 36, (2R)-4-(3-chloropyridin-2-yl)-N-(4-cyclopentylphenyl)-2-methylpiperazine-1-carboxamide]
< 1000 nM | C[C@@H]1CN(c2nccc3ccccc23)CCN1C(=O)Nc1ccc(C(C)(C)C)cc1 [Compound 39, (2R)-N-(4-tert-butylphenyl)-4-isoquinolin-1-yl-2-methylpiperazine-1-carboxamide]
< 1000 nM | C[C@@H]1CN(c2ncccc2Cl)CCN1C(=O)Nc1ccc(C2CCCCC2)cc1 [Compound 18, (2R)-4-(3-chloropyridin-2-yl)-N-(4-cyclohexylphenyl)-2-methylpiperazine-1-carboxamide]
< 1000 nM | C[C@@H]1CN(c2nccc3ccccc23)CCN1C(=O)Nc1ccc(C(F)(F)F)cc1 [Compound 38, (2R)-4-isoquinolin-1-yl-2-methyl-N-[4-(trifluoromethyl)phenyl]piperazine-1-carboxamide]
< 1000 nM | C[C@@H]1CN(c2ncccc2C#N)CCN1C(=O)Nc1ccc(C(F)(F)F)cc1 [Compound 83, (2R)-4-(3-cyanopyridin-2-yl)-2-methyl-N-[4-(trifluoromethyl)phenyl]piperazine-1-carboxamide]
< 1000 nM | CC1CN(c2ncccc2Cl)CC(C)N1C(=O)Nc1ccc(C2CCCCC2)cc1 (centres unmarked) [Compound 35, 4-(3-chloropyridin-2-yl)-N-(4-cyclohexylphenyl) 2,6-dimethylpiperazine-1-carboxamide]
< 1000 nM | CCC1CN(c2ncccc2C(F)(F)F)CCN1C(=O)Nc1ccc(C(C)(C)C)cc1 (centres unmarked) [Compound 61, N-(4-tert-butylphenyl)-2-ethyl-4-[3-(trifluoromethyl)pyridin-2-yl]piperazine-1-carboxamide]
< 1000 nM | CCC1CN(c2ncccc2Cl)CCN1C(=O)Nc1ccc(C(C)C)cc1 (centres unmarked) [Compound 60, 4-(3-chloropyridin-2-yl)-2-ethyl-N-[4-isopropylphenyl)piperazine-1-carboxamide]
< 1000 nM | CCC1CN(c2ncccc2C(F)(F)F)CCN1C(=O)Nc1ccc(C(C)C)cc1 (centres unmarked) [Compound 63, 2-ethyl-N-(4-isopropylphenyl)-4-[3-(trifluoromethyl)pyridin-2-yl]piperazine-1-carboxamide]
< 1000 nM | C[C@@H]1CN(c2nccc3ccccc23)CCN1C(=O)Nc1ccc(C2CCCC2)cc1 [Compound 41, (2R)-N-(4-cyclopentylphenyl)-4-isoquinolin-1-yl-2-methylpiperazine-1-carboxamide]

Same assay, conditions: Table V, read-out: EC50 (the source's name)

IC50 | Structure (SMILES)
< 1000 nM | C[C@@H]1CN(c2ncccc2Cl)CCN1C(=O)Nc1ccc(Br)c(C(F)(F)F)c1 [Compound 156, (2R)-N-[4-bromo-3-(trifluoromethyl)phenyl]-4-(3-chloropyridin-2-yl)-2-methylpiperazine-1-carboxamide]
< 1000 nM | C[C@@H]1CN(c2ncccc2Cl)CCN1C(=O)Nc1ccc(Cl)c(C(F)(F)F)c1 [Compound 158, (2R)-4-(3-chloropyridin-2-yl)-N-[4-chloro-3-(trifluoromethyl)phenyl]-2-methylpiperazine-1-carboxamide]
< 1000 nM | C[C@@H]1CN(c2ncccc2Cl)CCN1C(=O)Nc1cccc(I)c1 [Compound 150, (2R)-4-(3-chloropyridin-2-yl)-N-(3-iodophenyl)-2-methylpiperazine-1-carboxamide]
< 1000 nM | O=C(Nc1ccc(OC(F)(F)F)cc1)N1CCN(c2ncccc2C(F)(F)F)CC1 [Compound 117, N-[4-(trifluoromethoxy)phenyl]-4-[3-(trifluoromethyl)pyridin-2-yl]piperazine-1-carboxamide]
< 1000 nM | O=C(Nc1cccc(C(F)(F)F)c1)N1CCN(c2ncccc2C(F)(F)F)CC1 [Compound 110, N-[3-(trifluoromethyl)phenyl]-4-[3-(trifluoromethyl)pyridin-2-yl]piperazine-1-carboxamide]
< 1000 nM | CCCCc1ccc(NC(=O)N2CCN(c3ncccc3Cl)C[C@H]2C)cc1 [Compound 152, (2R)-N-(4-butylphenyl)-4-(3-chloropyridin-2-yl)-2-methylpiperazine-1-carboxamide]
< 1000 nM | C[C@@H]1CN(c2ncccc2C(F)(F)F)CCN1C(=O)Nc1ccc(Cl)c(C(F)(F)F)c1 [Compound 160, (2R)-N-[4-chloro-3-(trifluoromethyl)phenyl]-2-methyl-4-[3-(trifluoromethyl)pyridin-2-yl]piperazine-1-carboxamide]
< 1000 nM | O=C(Nc1ccc(Cl)cc1)N1CCN(c2cc(C(F)(F)F)ccn2)CC1 [Compound 107, N-(4-chlorophenyl)-4-[4-(trifluoromethyl)pyridin-2-yl]piperazine-1-carboxamide]
< 1000 nM | C[C@@H]1CN(c2ncccc2S(N)(=O)=O)CCN1C(=O)Nc1ccc(C(C)(C)C)cc1 [Compound 139, (2R)-4-[3-(aminosulfonyl)pyridin-2-yl]-N-(4-tert-butylphenyl)-2-methylpiperazine-1-carboxamide]
< 1000 nM | Cc1cc(NC(=O)N2CCN(c3ncccc3C(F)(F)F)C[C@H]2C)ccc1C(F)(F)F [Compound 124, (2R)-2-methyl-N-[3-methyl-4-(trifluoromethyl)phenyl]-4-[3-(trifluoromethyl)pyridin-2-yl]piperazine-1-carboxamide]
< 1000 nM | C[C@@H]1CN(c2ncccc2Cl)CCN1C(=O)Nc1ccc2c(c1)Cc1ccccc1-2 [Compound 142, (2R)-4-(3-chloropyridin-2-yl)-N-(9H-flouren-2-yl)-2-methylpiperazine-1-carboxamide]
< 1000 nM | CC(c1ccc(NC(=O)N2CCN(c3ncccc3F)C[C@H]2C)cc1)C(F)(F)F (stereo partly drawn) [Compound 130, (2R)-4-(3-fluoropyridin-2-yl)-2-methyl-N-[4-(2,2,2-trifluoro-1-methylethyl)phenyl]piperazine-1-carboxamide]

Same assay, conditions: Table VI, read-out: EC50 (the source's name)

IC50 | Structure (SMILES)
< 1000 nM | C[C@@H]1CN(c2ncccc2Cl)CCN1C(=S)Nc1ccc(C(C)(C)C)cc1 [Compound 168]
< 1000 nM | C[C@@H]1CN(c2nccnc2Cl)CCN1C(=O)Nc1ccc(C2CCCC2)cc1 [Compound 165, (2R)-4-(3-chloropyrazin-2-yl)-2-methyl-N-{4-cyclopentyl-phenyl}piperazine-1-carboxamide]
